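How tested: cells in 96-well plates exposed to compound for 48 hours at five concentrations. GI50 is the concentration that inhibits growth by half. TGI marks complete inhibition of growth.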
Columns and labels:
Experiment in all cases: DTP human tumour cell line panel, 48 h
[1] = test system: COLO 205 colon
[2] = test system: SF-295 CNS
[3] = test system: SK-MEL-2 melanoma
[4] = test system: NCI-H522 lung
[5] = test system: OVCAR-4 ovarian
[6] = test system: RPMI-8226 leukemia
[7] = test system: T-47D breast
[8] = test system: HCC-2998 colon
[9] = test system: CCRF-CEM leukemia
[10] = test system: OVCAR-8 ovarian
[11] = test system: HT29 colon
[12] = test system: MCF7 breast
[13] = test system: SNB-19 CNS
[14] = test system: SK-MEL-5 melanoma
[15] = test system: IGROV1 ovarian
[16] = test system: HCT-15 colon
[17] = test system: HCT-116 colon
[18] = test system: MALME-3M melanoma
[19] = test system: OVCAR-5 ovarian
[20] = test system: NCI-H226 lung
[21] = test system: HL-60(TB) leukemia
[22] = test system: A498 renal
[23] = test system: BT-549 breast
[24] = test system: CAKI-1 renal
[25] = test system: K-562 leukemia
[26] = test system: M14 melanoma
[27] = test system: UO-31 renal
[28] = test system: A549 NSCLC
[29] = test system: LOX IMVI melanoma
[30] = test system: ACHN renal
[31] = test system: HS 578T breast
[32] = test system: OVCAR-3 ovarian
[33] = test system: SNB-75 CNS
[34] = test system: TK-10 renal
[35] = test system: SR leukemia
[36] = test system: KM12 colon
[37] = test system: HOP-92 NSCLC
[38] = test system: MDA-MB-435
[39] = test system: SF-539 CNS
[40] = test system: U251 CNS
[41] = test system: MOLT-4 leukemia
[42] = test system: RXF 393 renal
[43] = test system: NCI-H23 lung
[44] = test system: MDA-MB-231 breast
[45] = test system: NCI/ADR-RES ovarian
[46] = test system: SW-620 colon
[47] = test system: NCI-H460 lung
[48] = test system: UACC-257 melanoma
[49] = test system: SK-OV-3 ovarian
[50] = test system: DU-145 prostate
[51] = test system: EKVX NSCLC
[52] = test system: HOP-62 NSCLC
[53] = test system: SF-268 CNS
[54] = test system: SK-MEL-28 melanoma
[55] = test system: PC-3 prostate
[56] = test system: UACC-62 melanoma
[57] = test system: 786-0 renal

Compound `COc1ccc(/C=C/C2C(C#N)=C(N)OC3=C2C(=O)CCC3)cc1` (configuration not stated) has a GI50 [1] of 21.1 µM, a TGI [1] of 41.2 µM and a GI50 [2] of 21.5 µM. For the same compound, the TGI [2] was 50.1 µM, the GI50 [3] was 38.5 µM and the TGI [3] was over 100 µM. For the same compound, the GI50 [4] was 18.3 µM, the TGI [4] was 38.9 µM and the GI50 [5] was 22.8 µM. The TGI [5] was 66.5 µM, the GI50 [6] was 2.14 µM and the TGI [6] was 5.18 µM. The GI50 [7] was 29.4 µM, the TGI [7] was over 100 µM and the GI50 [8] was 18.2 µM. For the same compound, the TGI [8] was 32.9 µM, the GI50 [9] was 4.05 µM and the TGI [9] was 16.6 µM. It also gave a GI50 [10] of 21.2 µM, a TGI [10] of over 100 µM and a GI50 [11] of 7.9 µM. The TGI [11] was 20.2 µM, the GI50 [12] was 12.1 µM and the TGI [12] was 26.4 µM. It also gave a GI50 [13] of 19.8 µM, a TGI [13] of 43.1 µM and a GI50 [14] of 18.1 µM. The TGI [14] was 32.8 µM, the GI50 [15] was 22 µM and the TGI [15] was 41.3 µM. The GI50 [16] was 21.4 µM, the TGI [16] was over 100 µM and the GI50 [17] was 7.39 µM. It also gave a TGI [17] of 20 µM, a GI50 [18] of 31.9 µM and a TGI [18] of 87.1 µM. For the same compound, the GI50 [19] was 18.8 µM, the TGI [19] was 34.5 µM and the GI50 [20] was 15 µM. It also gave a TGI [20] of 34 µM, a GI50 [21] of 5.28 µM and a TGI [21] of 63.2 µM. The GI50 [22] was 22.6 µM, the TGI [22] was 41 µM and the GI50 [23] was 31.9 µM. It also gave a TGI [23] of over 100 µM, a GI50 [24] of 40.8 µM and a TGI [24] of 97.3 µM. The GI50 [25] was 24.4 µM, the TGI [25] was over 100 µM and the GI50 [26] was 20.8 µM. For the same compound, the TGI [26] was 49.6 µM, the GI50 [27] was 18.2 µM and the TGI [27] was 33.1 µM. For the same compound, the GI50 [28] was 32.4 µM, the TGI [28] was 97 µM and the GI50 [29] was 11.4 µM. For the same compound, the TGI [29] was 23.4 µM, the GI50 [30] was 17.7 µM and the TGI [30] was 33.7 µM. The GI50 [31] was 63 µM, the TGI [31] was over 100 µM and the GI50 [32] was 34 µM. For the same compound, the TGI [32] was over 100 µM, the GI50 [33] was 19.9 µM and the TGI [33] was 37.4 µM. It also gave a GI50 [34] of 26.9 µM, a TGI [34] of 63.8 µM and a GI50 [35] of 2.71 µM. For the same compound, the TGI [35] was 16 µM, the GI50 [36] was 13.5 µM and the TGI [36] was 28.6 µM. The GI50 [37] was 23.6 µM, the TGI [37] was 46.9 µM and the GI50 [38] was 18.4 µM. For the same compound, the TGI [38] was 61.3 µM, the GI50 [39] was 31.3 µM and the TGI [39] was 80.1 µM. For the same compound, the GI50 [40] was 12.5 µM, the TGI [40] was 25 µM and the GI50 [41] was 4.23 µM. It also gave a TGI [41] of 19.7 µM, a GI50 [42] of 18.7 µM and a TGI [42] of 35.9 µM. The GI50 [43] was 20.1 µM, the TGI [43] was 47.7 µM and the GI50 [44] was 2.54 µM. The TGI [44] was 8.79 µM, the GI50 [45] was 33.9 µM and the TGI [45] was over 100 µM. The GI50 [46] was 29.7 µM, the TGI [46] was over 100 µM and the GI50 [47] was 16.9 µM. It also gave a TGI [47] of 35 µM, a GI50 [48] of 23 µM and a TGI [48] of 49.5 µM. For the same compound, the GI50 [49] was 25.1 µM, the TGI [49] was 77.6 µM and the GI50 [50] was 15.9 µM. The TGI [50] was 33.7 µM, the GI50 [51] was 38 µM and the TGI [51] was over 100 µM. It also gave a GI50 [52] of 29.6 µM, a TGI [52] of 62.7 µM and a GI50 [53] of 13.8 µM. It also gave a TGI [53] of 30.5 µM, a GI50 [54] of 17.9 µM and a TGI [54] of 35.3 µM.

`Cc1c2c(n(C)c1C)C(=O)C1C(C2=O)C2(C)c3ccccc3C1(C)c1ccccc12` (configuration not stated) was tested, and the TGI [1] was over 100 µM, the TGI [2] was over 100 µM and the TGI [3] was over 100 µM. It also gave a TGI [6] of over 100 µM, a TGI [7] of over 100 µM and a TGI [9] of over 100 µM. The TGI [10] was over 100 µM, the TGI [11] was over 100 µM and the TGI [12] was over 100 µM. The TGI [13] was over 100 µM, the TGI [14] was over 100 µM and the TGI [15] was over 100 µM. It also gave a TGI [16] of over 100 µM, a TGI [17] of over 100 µM and a TGI [18] of over 100 µM. It also gave a TGI [19] of over 100 µM, a TGI [20] of over 100 µM and a TGI [21] of over 100 µM. It also gave a TGI [22] of over 100 µM, a TGI [23] of over 100 µM and a TGI [25] of over 100 µM. For the same compound, the TGI [26] was over 100 µM, the TGI [27] was over 100 µM and the TGI [29] was over 100 µM. For the same compound, the TGI [30] was over 100 µM, the TGI [31] was over 100 µM and the TGI [32] was over 100 µM. The TGI [33] was over 100 µM, the TGI [55] was over 100 µM and the TGI [34] was over 100 µM. It also gave a TGI [35] of over 100 µM, a TGI [36] of over 100 µM and a TGI [38] of over 100 µM. The TGI [39] was over 100 µM, the TGI [56] was over 100 µM and the TGI [41] was over 100 µM. For the same compound, the TGI [42] was over 100 µM, the TGI [43] was over 100 µM and the TGI [45] was over 100 µM. The TGI [46] was over 100 µM, the TGI [47] was over 100 µM and the TGI [57] was over 100 µM. For the same compound, the TGI [48] was over 100 µM, the TGI [49] was over 100 µM and the TGI [50] was over 100 µM. It also gave a TGI [51] of over 100 µM, a TGI [52] of over 100 µM and a TGI [53] of over 100 µM. For the same compound, the TGI [54] was over 100 µM.

Reference: PubChem BioAssay (NCI)
